Source: patent publication US7282494B2, “Heteroaryl diazacycloalkanes, their preparation and use” (Neurosearch A/S, priority 1909, dated 2007)
Structures can show the parent of a compound that is named as a salt. Where two headings read alike, the source gives them in different places.

Assays:
[1] = biological target: nAChR formed by the α7 subunit isoform (Rattus norvegicus, UniProt Q05941); assay: In vitro inhibition of 3H-α-bungarotoxine binding rat brain (Assay III)
[2] = biological target: T1, neuronal nicotinic receptors (3H-epibatidine binding sites; high affinity site α4β2 subtype) (Rattus norvegicus, UniProt P09483+P12390); assay: biochemical
T1 sequence (P09483 31-630): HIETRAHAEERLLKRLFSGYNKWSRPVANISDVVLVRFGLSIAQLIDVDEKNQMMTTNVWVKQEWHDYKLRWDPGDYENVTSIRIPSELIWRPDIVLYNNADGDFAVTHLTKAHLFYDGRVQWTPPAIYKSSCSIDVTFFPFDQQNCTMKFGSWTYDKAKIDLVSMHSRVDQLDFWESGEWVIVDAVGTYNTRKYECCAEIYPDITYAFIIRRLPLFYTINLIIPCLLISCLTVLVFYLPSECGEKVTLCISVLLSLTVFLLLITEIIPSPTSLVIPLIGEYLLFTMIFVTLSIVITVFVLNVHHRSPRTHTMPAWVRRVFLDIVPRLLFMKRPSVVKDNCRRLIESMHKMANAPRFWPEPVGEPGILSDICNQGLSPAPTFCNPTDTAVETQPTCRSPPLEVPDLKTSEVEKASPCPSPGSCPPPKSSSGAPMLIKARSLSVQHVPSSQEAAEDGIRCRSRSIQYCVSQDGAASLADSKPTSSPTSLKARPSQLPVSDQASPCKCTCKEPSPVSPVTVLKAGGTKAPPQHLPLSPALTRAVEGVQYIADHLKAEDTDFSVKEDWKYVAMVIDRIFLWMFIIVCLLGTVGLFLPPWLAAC
T1 sequence (P12390 25-500): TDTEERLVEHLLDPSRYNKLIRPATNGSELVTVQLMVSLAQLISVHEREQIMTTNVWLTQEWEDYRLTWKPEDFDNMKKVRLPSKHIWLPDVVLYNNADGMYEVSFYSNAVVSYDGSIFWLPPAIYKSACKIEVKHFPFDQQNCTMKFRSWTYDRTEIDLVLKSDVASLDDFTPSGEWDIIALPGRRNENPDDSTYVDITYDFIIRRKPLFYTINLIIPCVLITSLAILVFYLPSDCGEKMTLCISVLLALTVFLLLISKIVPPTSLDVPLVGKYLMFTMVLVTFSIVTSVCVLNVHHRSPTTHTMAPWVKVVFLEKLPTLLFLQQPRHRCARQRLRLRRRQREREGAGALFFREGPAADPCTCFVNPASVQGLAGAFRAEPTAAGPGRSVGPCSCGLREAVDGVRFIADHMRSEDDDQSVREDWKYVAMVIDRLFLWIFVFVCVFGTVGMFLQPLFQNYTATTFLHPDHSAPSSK

[3] = biological target: T1, neuronal nicotinic receptors (3H-epibatidine binding sites; high affinity site α4β2 subtype)
[4] = 3H-α-bungarotoxine 2 nM, cerebral cortices from male Wistar rats, 2 h at 37° C., read-out: Assay III IC50

Sequence of nAChR formed by the α7 subunit isoform (Q05941 23-502): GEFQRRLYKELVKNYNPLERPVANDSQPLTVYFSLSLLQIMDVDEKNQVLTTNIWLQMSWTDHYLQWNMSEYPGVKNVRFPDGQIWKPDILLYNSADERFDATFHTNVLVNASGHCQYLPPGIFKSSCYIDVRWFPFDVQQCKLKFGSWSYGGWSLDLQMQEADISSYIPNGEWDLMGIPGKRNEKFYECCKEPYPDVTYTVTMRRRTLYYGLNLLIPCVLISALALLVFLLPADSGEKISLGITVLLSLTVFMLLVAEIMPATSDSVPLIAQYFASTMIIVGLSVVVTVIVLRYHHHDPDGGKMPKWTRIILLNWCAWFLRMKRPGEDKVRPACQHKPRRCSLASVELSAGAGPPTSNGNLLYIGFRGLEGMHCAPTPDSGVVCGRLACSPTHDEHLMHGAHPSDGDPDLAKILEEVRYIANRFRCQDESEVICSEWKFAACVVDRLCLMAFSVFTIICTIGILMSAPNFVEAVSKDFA

Structure (SMILES)	melting point [°C]	IC50 [1, 4] [nM]	IC50 [2] [nM]	further results
CCCCCOc1cncc(N2CCN(C)CC2)c1 (as salt: fumaric acid salt)	113.6 to 115.1	–	–	–
C=COc1cc(N2CCCNCC2)cnc1Br (as salt: fumaric acid salt)	128.6	–	–	–
C=COc1cc(N2CCCNCC2)cnc1Cl (as salt: fumaric acid salt)	183 to 185	–	–	–
Ic1cncc(N2CCCNCC2)c1 (as salt: fumaric acid salt)	178 to 180	–	–	–
COc1cc(N2CCCNCC2)cnc1Br (as salt: fumaric acid salt)	210 to 212	–	–	–
CCOc1cncc(N2CCCN(c3cncc(OCC)c3)CC2)c1 (as salt: fumaric acid salt)	155 to 156	–	–	–
C=COc1cncc(N2CCCN(c3cncc(OC=C)c3)CC2)c1 (as salt: fumaric acid salt)	157 to 158.5	–	–	–
c1ncc(N2CCCNCC2)cc1N1CCC1 (as salt: fumaric acid salt)	143.5 to 146.9	–	–	–
Clc1cncc(N2CCCNCCC2)c1 (as salt: fumaric acid salt)	186 to 187	–	–	–
Brc1cncc(N2CCCNCCC2)c1 (as salt: fumaric acid salt)	151 to 153	–	–	–
Brc1cc(N2CCCNCC2)cnc1Br (as salt: fumaric acid salt) [1-(5,6-Dibromo-3-pyridyl)-homopiperazine]	192.1 to 193.2	–	–	–
Clc1cc(N2CCCNCC2)cnc1Cl (as salt: fumaric acid salt) [1-(5,6-Dichloro-3-pyridyl)-homopiperazine]	172.2 to 173.4	–	–	–
Clc1ncc(N2CCCNCC2)cc1Br (as salt: fumaric acid salt) [1-(5-Bromo-6-chloro-3-pyridyl)-homopiperazine]	188.2 to 189.2	–	–	–
C(#Cc1cncc(N2CCCNCC2)c1)c1ccccc1 (as salt: fumaric acid salt) [1-(5-Phenylacetylenyl-3-pyridyl)-homopiperazine]	155.2 to 157.8	–	–	–
Brc1ccc(N2CCCNCC2)nn1 (as salt: fumaric acid salt) [1-(6-Bromo-3-pyridazinyl)-homopiperazine]	169 to 171	–	–	–
Clc1cc(N2CCCNCC2)cnc1Br (as salt: fumaric acid salt) [1-(6-Bromo-5-chloro-3-pyridyl)-homopiperazine]	213 to 216	–	–	–
C=CC(C)Oc1cncc(N2CCCNCC2)c1 (stereo not shown) (as salt: fumaric acid salt) [1-[5-(1-Methyl-1-prop-2-en-oxy)-3-pyridyl]-homopiperazine]	129.5 to 133.6	–	–	–
CCC(CC)COc1cncc(N2CCCNCC2)c1 (as salt: fumaric acid salt) [1-[5-(2-Ethyl-1-butoxy)-3-pyridyl]-homopiperazine]	113.7 to 115.9	–	–	–
c1ncc(N2CCCNCC2)cc1OCC1CCC1 (as salt: fumaric acid salt) [1-[5-(Cyclobutylmethoxy)-3-pyridyl]-homopiperazine]	158.9 to 159.9	–	–	–

Structure (SMILES)	melting point [°C]	IC50 [1, 4] [nM]	IC50 [2] [nM]	further results
CCCC=CCOc1cncc(N2CCCNCC2)c1 (as salt: fumaric acid salt) [1-[5-(Hex-2-en-ox)-3-pyridyl]-homopiperazine]	126.8 to 130.2	–	–	–
CCCCN(C)c1cncc(N2CCCNCC2)c1 (as salt: fumaric acid salt) [1-[5-(N-Butyl-N-methylamino)-3-pyridyl]homopiperazine]	140.5 to 141.8	–	–	–
c1ncc(N2CCCNCC2)cc1N1CCCC1 (as salt: fumaric acid salt) [1-[5-(N-pyrrolidinyl)-3-pyridyl]-homopiperazine]	141.5 to 143	–	–	–
Brc1cc(N2CCCNCC2)cnc1Br [1-(5,6-Dibromo-3-pyridyl)-homopiperazine]	–	3000	1	–
Clc1cc(N2CCCNCC2)cnc1Cl [1-(5,6-Dichloro-3-pyridyl)-homopiperazine]	–	< 3000	2	–
Clc1ncc(N2CCCNCC2)cc1Br [1-(5-Bromo-6-chloro-3-pyridyl)-homopiperazine]	–	< 3000	1	–
C=CCN1CCCN(c2cncc(OCC)c2)CC1 [1-(5-Ethoxy-3-pyridyl)-4-(prop-2-en-1-yl-)-homopiperazine]	–	–	–	IC50 [1]: > 30000 nM
CCOc1cncc(N2CCCN(CC)CC2)c1 [1-(5-Ethoxy-3-pyridyl)-4-ethyl-homopiperazine]	–	–	–	IC50 [1]: > 30000 nM
C(#Cc1cncc(N2CCCNCC2)c1)c1ccccc1 [1-(5-Phenylacetylenyl-3-pyridyl)-homopiperazine]	–	11000	5	–
Brc1ccc(N2CCCNCC2)nn1 [1-(6-Bromo-3-pyridazinyl)-homopiperazine]	–	1500	70	–
Clc1cc(N2CCCNCC2)cnc1Br [1-(6-Bromo-5-chloro-3-pyridyl)-homopiperazine]	–	< 3000	2	–
C=CC(C)Oc1cncc(N2CCCNCC2)c1 (stereo not shown) [1-[5-(1-Methyl-1-prop-2-en-oxy)-3-pyridyl]-homopiperazine]	–	11000	52	–
CCC(CC)COc1cncc(N2CCCNCC2)c1 [1-[5-(2-Ethyl-1-butoxy)-3-pyridyl]-homopiperazine]	–	> 30000	13	–
CC(C)=COc1cncc(N2CCCNCC2)c1 [1-[5-(2-Methyl-1-prop-1-en-oxy)-3-pridyl]-homopiperazine]	–	85000	–	IC50 [3]: 20 nM
CCCCOc1cncc(N2CCCNCCC2)c1 [1-[5-(Butoxy)-3-pyridyl]-1,5-diazacyclooctane]	–	–	3	–
c1ncc(N2CCCNCC2)cc1OCC1CCC1 [1-[5-(Cyclobutylmethoxy)-3-pyridyl]-homopiperazine]	–	> 30000	4	–
CCCC=CCOc1cncc(N2CCCNCC2)c1 [1-[5-(Hex-2-en-ox)-3-pyridyl]-homopiperazine]	–	47000	8	–
c1ncc(N2CCCNCC2)cc1N1CCCC1 [1-[5-(N-pyrrolidinyl)-3-pyridyl]-homopiperazine]	–	5000	40	–
CC1OC1Oc1cncc(N2CCCNCC2)c1 (stereo not shown) [1-[5-(Propyl-1,2-epoxy-1-oxy)-3-pyridyl]-homopiperazine]	135.2 to 139	58000	40	–
